How the values were obtained:
PD-L1 on monocytes = experiment: Surface expression of PD-L1 on primed monocytes, flow cytometry; format: cell-based, human; conditions: polypeptide 10 μg/mL, 24 hours, MFI relative to medium control (FIG. 3B)
Protocol: (§1) (A) Monocytes were incubated with rsTLT-1 (10 μg/mL) for 3 days. At the indicated time point, the cells were harvested and the HLA-DR and PD-L1 molecules were analyzed using flow cytometry. […] (B) Monocytes were cultured with different concentrations of rsTLT-1 for 2 days. The cells were then harvested and the HLA-DR and PD-L1 molecules were analyzed using flow cytometry. Surface molecule expression is presented as the mean fluorescence intensity (MFI) relative to each day that the cells were treated with the control medium (dashed line). Values are presented as mean±SEM from 3 independent experiments.
(A) depicts structural characteristics of extracellular domain of TLT-1 and designed TLT-1 polypeptides. […] The cells were then harvested and the PD-L1 molecules were analyzed using flow cytometry. Surface molecule expression is presented as the MFI relative to each day that the cells were treated with the medium control (dashed line).
White blood cell concentrates from healthy volunteers were obtained from the Taiwan Blood Service Foundation (Taipei, Taiwan). Written informed consent was obtained for participation in the study, which was approved by the Institutional Review Board of the MacKay Memorial Hospital. Human monocytes were isolated as previously described. […]

HLA-DR on monocytes = experiment: Surface expression of HLA-DR on primed monocytes, flow cytometry; format: cell-based, human; conditions: polypeptide 10 μg/ml, 48 hours of incubation (FIG. 4)
Protocol: as §1
Monocytes were cultured with 10 μg/ml TLT-1 15-63 polypeptide and 10 μg/ml rsTLT-1 for 2 days. The cells were then harvested and the HLA-DR molecules were analyzed using flow cytometry. Surface molecule expression is presented as the MFI relative to each day that the cells were treated with the medium control (dashed line).
White blood cell concentrates from healthy volunteers were obtained from the Taiwan Blood Service Foundation (Taipei, Taiwan). Written informed consent was obtained for participation in the study, which was approved by the Institutional Review Board of the MacKay Memorial Hospital. Human monocytes were isolated as previously described. In brief, peripheral blood mononuclear cells (PBMCs) were isolated using Ficoll-Paque Plus (GE Healthcare) gradient centrifugation. […]

Substance | PD-L1 surface expression on monocytes (PD-L1 on monocytes) | HLA-DR surface expression on monocytes (HLA-DR on monocytes)
TLT-1 15-63: GQGIVGSLPEVLQAPVGSSILVQCHYRLQDVKAQKVWCRFLPEGCQPLV (SEQ ID NO: 7; same sequence as SEQ ID NO: 2) (Polypeptide name TLT-1 15-63) | significantly increased | decreased
TLT-1 34-63: ILVQCHYRLQDVKAQKVWCRFLPEGCQPLV (SEQ ID NO: 9; same sequence as SEQ ID NO: 1) (Polypeptide name TLT-1 34-63) | induced PD-L1 expression | –
